# Patent publication US20220228111A1, “NOCICEPTOR DIFFERENTIATION FROM HUMAN PLURIPOTENT STEM CELLS” (priority 2019, published 2022)
# Entries after “also recorded” stand apart in the source; their conditions may differ.
# Legend:
# [1] = test system: iPSC-derived nociceptor-like cells; experiment: Multi-electrode array: sensitization of nociceptor-like cells with temperature stimulation; assay type: cell-based, human; details: then 40° C., day 28
# Description: FIGS. 12A and 12B illustrate the results of an electrophysiology experiment (multi-electrode array using Maestro Pro, Axion Biosystems) showing that iPSC-derived nociceptor-like cells were sensitized in response to treatment with oxaliplatin and prostaglandin E2 (PGE2). Oxaliplatin is a widely used chemotherapeutic drug that can damage sensory neurons of the peripheral nervous system and lead to peripheral neuropathy. PGE2 is used to model inflammatory pain. At day 28 of the procedure described in Example 1, the iPSC-derived nociceptor-like cells were recorded at 37° C. for 10 minutes for baseline recording, and then pre-treated with 0.1% DMSO, 50 μM Oxaliplatin or 1 μM PGE2 for 15 minutes at 37° C. The temperature was then increased to 40° C. to stimulate the cells, and recording was performed for another 10 minutes.
# cellular target = details: cited from earlier work; for IC50: as described in Sidrauski et al.
# [2] = test system: iPSC-derived nociceptor-like cells; experiment: Multi-electrode array: stimulation of nociceptor-like cells by specific ligands; assay type: cell-based, human
# Protocol: Functional analysis of nociceptors derived from iPSCs according to the procedure described in Example 1 was performed. Multi-electrode arrays were used for the electrophysiology characterization experiments.
# [3] = molecular target: T1, purinergic receptor P2RX3 (Homo sapiens, UniProt P56373); experiment: Multi-electrode array: α,β-me-ATP stimulation and P2RX3 antagonist block in nociceptor-like cells; assay type: cell-based; details: 10 μM, day 28, multi-electrode array
# T1 construct: iPSC-derived nociceptor-like cells were stimulated by application of 10 μM α,β-me-ATP, which is a known agonist for P2RX3 purinergic receptors; endogenous in cells; host or cells: iPSC-derived nociceptor-like cells, day 28 of differentiation
# T1 sequence (P56373 1-397): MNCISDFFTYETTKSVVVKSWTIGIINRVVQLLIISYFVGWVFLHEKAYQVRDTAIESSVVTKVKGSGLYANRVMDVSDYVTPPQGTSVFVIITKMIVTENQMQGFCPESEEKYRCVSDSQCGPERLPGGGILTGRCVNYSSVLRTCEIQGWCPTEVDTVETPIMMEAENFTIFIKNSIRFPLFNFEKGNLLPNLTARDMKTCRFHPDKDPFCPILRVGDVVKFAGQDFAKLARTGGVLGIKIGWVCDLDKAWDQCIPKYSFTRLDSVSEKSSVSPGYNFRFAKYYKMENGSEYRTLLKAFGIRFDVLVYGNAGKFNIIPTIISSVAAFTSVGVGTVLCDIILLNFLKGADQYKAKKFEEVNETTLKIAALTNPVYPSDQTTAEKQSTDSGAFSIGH
# Protocol: At day 28 of the procedure described in Example 1, the iPSC-derived nociceptor-like cells were pre-treated with 0.1% DMSO or 10 μM of each known antagonist of purinergic receptor P2RX3 for 30 minutes at 37° C. The cells were then stimulated by 10 μM α,β-me-ATP, and recordings were performed using multi-electrode.
smiles,measurement,setting,value
"CCCCC[C@H](O)/C=C/[C@H]1[C@H](O)CC(=O)[C@@H]1C/C=C\CCCC(=O)O [PGE2, prostaglandin E2]",sensitization of nociceptor-like cells,[1]; 1 μM pre-treatment 15 minutes at 37° C.,sensitized
"O=C(COc1ccc(Cl)cc1)N[C@H]1CC[C@H](NC(=O)COc2ccc(Cl)cc2)CC1 [trans-ISRIB, N,N′-((1r,4r)-cyclohexane-1,4-diyl)bis(2-(4-chlorophenoxy)acetamide)]",IC50,cellular target,5 nM
same,fold more potent than cis-ISRIB,cellular target; trans-ISRIB vs cis-ISRIB,100 fold
"C=CCN=C=S [mustard oil, allyl isothiocyanate]",response: frequency of firing action potentials,[2]; 100 μM,increasing the frequency of firing action potentials; also recorded: stimulated
"Nc1ncnc2c1ncn2[C@@H]1O[C@H](COP(=O)(O)CP(=O)(O)OP(=O)(O)O)[C@@H](O)[C@H]1O [α,β-me-ATP]",response: frequency of firing action potentials,[2]; 10 μM,increasing the frequency of firing action potentials; also recorded: stimulated
same,stimulation of nociceptor-like cells,[3],stimulated
O=C(COc1ccc(Cl)cc1)NC1CCC(NC(=O)COc2ccc(Cl)cc2)CC1 (stereo not drawn) [cis-ISRIB],IC50,cellular target,600 nM
O=C1[O][Pt]2([NH][C@@H]3CCCC[C@H]3[NH]2)[O]C1=O [oxaliplatin],sensitization of nociceptor-like cells,[1]; 50 μM pre-treatment 15 minutes at 37° C.,sensitized
COc1cc(CNC(=O)CCCC/C=C/C(C)C)ccc1O [capsaicin],response: frequency of firing action potentials,[2]; 5 μM,increasing the frequency of firing action potentials; also recorded: stimulated
